Laboratory results reported in patent publication US20210348119A1, “COMPOSITIONS AND METHODS FOR CELL CULTURE” (The United States of America as Represented By The …, priority 2018, published 2021).
Where “and” joins values, the source holds several entries; their conditions need not be identical. Equal entries are not always repeated. Structures can show the parent of a compound that is named as a salt. Where two headings read alike, the source gives them in different places.

System: H9 cells
Experiment: qHTS for survival of dissociated H9 cells (CellTiter-Glo, 24 hours after seeding)
Type: cell-based, human
Text: FIG. 2 schematically illustrates qHTS procedure.
All the screed compounds were received pre-plated at the pre-determined concentrations. […] Curve classification is explained in Huang et al. “Chemical genomics profiling of environmental chemical modulation of human nuclear receptors” Environ. Health. Perspect.

[1] = H9 cell survival normalized to 10 μM Y-27632 (taken to be 100%)
[2] = H9 cell survival, normalized to 10 μM Y-27632
[3] = Homo sapiens, H9, 24 h, H9 cell survival normalized to 10 μM Y-27632 (taken to be 100%); read-out: Max (maximum activity value from all tested concentrations)
[4] = Homo sapiens, H9, 24 h, H9 cell survival, CellTiter-Glo 24 hours after seeding; read-out: AC50 (concentration at 50% efficacy)
[5] = Homo sapiens, H9, 24 h, H9 cell survival, normalized to 10 μM Y-27632; read-out: Efficacy (activity range between predicted activities at zero and infinite doses, Hill equation)
[6] = H9 cell survival, CellTiter-Glo 24 hours after seeding; read-out: AC50 (concentration at 50% efficacy)
[7] = Homo sapiens, H9, 24 h; read-out: Efficacy (activity range between predicted activities at zero and infinite doses, Hill equation)
[8] = Homo sapiens, H9, 24 h; read-out: Max (maximum activity value from all tested concentrations)
[9] = Homo sapiens; H9 cell survival, CellTiter-Glo 24 hours after seeding; read-out: AC50 (concentration at 50% efficacy)

SMILES: CC(C)CCC(=O)CC1c2ccccc2C(=O)N1c1ccc2ccc(Cl)nc2n1 (single isomer, unassigned; (+)) [(+)-Pagoclone]
- Max (maximum activity value from all tested concentrations) [1]: 22.94%
- Efficacy (activity range between predicted activities at zero and infinite doses, Hill equation) [2]: 0

SMILES: Oc1cccc2c(O)nccc12 [1,5-Isoquinolinediol]
- Emax [3]: 41%
- AC50 [4]: 18.4 µM
- Emax [5]: 42.2%

SMILES: CC1CN(S(=O)(=O)c2cccc3cnccc23)CCN1.Cl.Cl (stereo not drawn) [1-05-IsoquinolinylstilfonyI)-3-methylpiperazine dihydroehloride]
- Max (maximum activity value from all tested concentrations) [1]: 100.6%
- AC50 [6]: 20.6 µM
- Efficacy (activity range between predicted activities at zero and infinite doses, Hill equation) [2]: 102

SMILES: COc1cccc(CNC(=O)Nc2nc(-c3ccncc3)cs2)c1 [1-(3-methoxybenzyl)-3-(4-(pyridin-4-yl)thiazol-2-yl)urea]
- Emax [3]: 124%
- AC50 [4]: 0.147 µM
- Emax [5]: 121%

SMILES: CC1CNCCN1S(=O)(=O)c1cccc2cnccc12.Cl.Cl (stereo not drawn) [1-(5-Isoquinolinylsulfonyl)-2-methylpipenvine dihydrochloride]
- Max (maximum activity value from all tested concentrations) [1]: 85.52%
- AC50 [6]: 4.61 µM
- Efficacy (activity range between predicted activities at zero and infinite doses, Hill equation) [2]: 92.2

SMILES: C[C@]12C[C@@H](O)[C@H]3[C@@H](CC[C@@H]4C[C@@H](O)CC[C@@]43CO)[C@@]1(O)CC[C@@H]2C1=CC(=O)OC1 [19-hydroxysarmentogenin]
- Max (maximum activity value from all tested concentrations) [1]: 21.79%
- AC50 [6]: 0.004 µM
- Efficacy (activity range between predicted activities at zero and infinite doses, Hill equation) [2]: −11.5

SMILES: Cc1n[nH]c2ccc(-c3cncc(OC[C@@H](N)Cc4c[nH]c5ccccc45)c3)cc12 [A-443654]
- Emax [3]: 39.8%
- Emax [5]: 0%

SMILES: Cc1cccc(NC(=O)c2ccc(C(F)(F)F)cc2C(=O)O)n1 [AF38469]
- Max (maximum activity value from all tested concentrations) [1]: 22.96%
- AC50 [6]: 5.21 µM
- Efficacy (activity range between predicted activities at zero and infinite doses, Hill equation) [2]: 29.6

SMILES: CCn1c(-c2nonc2N)nc2c(C#CCO)ncc(OCCCN)c21 [AKT Kinase Inhibitor]
- Max (maximum activity value from all tested concentrations) [1]: 46.89%
- Efficacy (activity range between predicted activities at zero and infinite doses, Hill equation) [2]: 0

SMILES: O=C1NC(=O)C(=O)C(=O)N1 [ALLOXAN]
- Emax [7]: 27.2%
- Emax [8]: 22.4%
- AC50 [9]: 5.21 µM

SMILES: CNc1nccc(-c2cccnc2Oc2cc(C(=O)Nc3cccc(C(F)(F)F)c3)ccc2C)n1 [AMG-Tie2-1]
- Max (maximum activity value from all tested concentrations) [1]: 57.84%
- AC50 [6]: 18.7 µM
- Efficacy (activity range between predicted activities at zero and infinite doses, Hill equation) [2]: 54.5

SMILES: O=C(Nc1ccc(-c2ccncc2)cc1)N[C@H](CO)c1ccccc1 [AS 1892802]
- Max (maximum activity value from all tested concentrations) [1]: 117.5%
- AC50 [6]: 1.31 µM
- Efficacy (activity range between predicted activities at zero and infinite doses, Hill equation) [2]: 115

SMILES: Clc1ccc(C2(c3ccc(-c4cn[nH]c4)cc3)CCNCC2)cc1 [AT-7867]
- Max (maximum activity value from all tested concentrations) [1]: 119.5% and 118.4%
- Efficacy (activity range between predicted activities at zero and infinite doses, Hill equation) [2]: 92.2 and 104

SMILES: NC[C@@](O)(c1ccc(Cl)cc1)c1ccc(-c2cn[nH]c2)cc1 [AT-13148]
- Emax [3]: 89.8%
- AC50 [4]: 0.104 µM
- Emax [5]: 64.5%

SMILES: CCCCOc1c(C(=O)c2c(F)cc(C)cc2F)c[nH]c2nncc1-2 [BMS-265246]
- Emax [3]: 42.8%
- AC50 [4]: 1.18 µM
- Emax [5]: 33.9%

SMILES: Cl.O=c1[nH]c([C@@H]2CCCN2)nc2c1oc1ccc(Cl)cc12 [BMS-863233 (XL-413)]
- Max (maximum activity value from all tested concentrations) [1]: 22.03%
- AC50 [6]: 26.1 µM
- Efficacy (activity range between predicted activities at zero and infinite doses, Hill equation) [2]: 28.3

SMILES: CCS(=O)(=O)N1CC(CC#N)(n2cc(-c3ncnc4[nH]ccc34)cn2)C1 [Baricitinib]
- Emax [3]: 115%

SMILES: CCCC1(C)C(C#N)(C#N)C1(C#N)C#N [CCG-2046]
- Max (maximum activity value from all tested concentrations) [1]: 21.78%
- AC50 [6]: 20.6 µM
- Efficacy (activity range between predicted activities at zero and infinite doses, Hill equation) [2]: 23.7

SMILES: NC1(Cc2ccc(Cl)cc2)CCN(c2ncnc3[nH]ccc23)CC1 [CCT-128930]
- Max (maximum activity value from all tested concentrations) [1]: 106.8%
- AC50 [6]: 11.8 µM
- Efficacy (activity range between predicted activities at zero and infinite doses, Hill equation) [2]: 133

SMILES: COc1c(Nc2ncc(Cl)c(N[C@H]3[C@@H](C(N)=O)[C@@H]4C=C[C@H]3C4)n2)ccc2c1CC[C@@H](N1CCOCC1)CC2 [CEP-28122]
- Max (maximum activity value from all tested concentrations) [1]: 23.83%
- AC50 [6]: 0.585 µM
- Efficacy (activity range between predicted activities at zero and infinite doses, Hill equation) [2]: 23.5

SMILES: CN1CCN(c2cccc(Nc3nc4c(-c5ccc(S(C)(=O)=O)cc5)cccn4n3)c2)CC1 [CEP-33779]
- Max (maximum activity value from all tested concentrations) [1]: 27.79%
- AC50 [6]: 5.9 µM
- Efficacy (activity range between predicted activities at zero and infinite doses, Hill equation) [2]: 25.5

SMILES: O=c1[nH]c2ccc(Cl)cc2c(N[C@@H]2CN3CCC2CC3)c1-c1nc2ccccc2[nH]1 [CHIR-124]
- Max (maximum activity value from all tested concentrations) [1]: 21.27%
- AC50 [6]: 0.235 µM
- Efficacy (activity range between predicted activities at zero and infinite doses, Hill equation) [2]: 12.4

SMILES: Cc1[nH]c2ccccc2c1CCNC(=O)c1cccs1 [CK-636]
- Max (maximum activity value from all tested concentrations) [1]: 47.74%
- Efficacy (activity range between predicted activities at zero and infinite doses, Hill equation) [2]: 0

SMILES: COCCOc1ccc2c(c1)ncn2-c1ccc2cccc(N3CCC(N)CC3)c2n1 [CP-673451]
- Emax [3]: 35.6%
- Emax [5]: 0%

SMILES: COCC(=O)NC/C=C/c1ccc2ncnc(Nc3ccc(Oc4ccc(C)nc4)c(C)c3)c2c1 [CP-724714]
- Emax [3]: 21.2%
- AC50 [4]: 20.8 µM
- Emax [5]: 23.5%

SMILES: CCS(=O)(=O)N1CCN(c2ccc(Nc3ncc(C(N)=O)c(NC4CC4)n3)cc2)CC1 [Cerdulatinib]
- Emax [3]: 39%
- AC50 [4]: 2.93 µM
- Emax [5]: 33.6%

SMILES: C=C1[C@@H](C)[C@H]2[C@H](Cc3ccccc3)NC(=O)[C@]23OC(=O)/C=C/[C@H](O)CCC[C@@H](C)C/C=C/[C@H]3[C@@H]1O [Cytochalasin B]
- Max (maximum activity value from all tested concentrations) [1]: 14.14%
- AC50 [6]: 7.5 µM
- Efficacy (activity range between predicted activities at zero and infinite doses, Hill equation) [2]: 43.2

SMILES: Cc1c(O)c(O)cc2c1CC=C1[C@@]2(C)CC[C@@]2(C)[C@@H]3C[C@](C)(C(=O)O)CC[C@]3(C)CC[C@]12C [DIHYDROCELASTROL]
- Emax [7]: 26.1%
- Emax [8]: 21.2%
- AC50 [9]: 14.7 µM

SMILES: CC(C)(C)c1nc(-c2cccc(NS(=O)(=O)c3c(F)cccc3F)c2F)c(-c2ccnc(N)n2)s1 [Dabrafenib]
- Emax [3]: 22%
- AC50 [4]: 14.8 µM
- Emax [5]: 21.7%

SMILES: CC[C@@](C)(Nc1ccnc(-c2c[nH]c3ncccc23)n1)C(=O)NCC(F)(F)F [Decernotinib]
- Emax [3]: 34%
- AC50 [4]: 2.93 µM
- Emax [5]: 30.1%

SMILES: Cn1c(=O)c2c(ncn2CC2OCCO2)n(C)c1=O [Doxofylline]
- AC50 [4]: 0.521 µM
- Emax (Homo sapiens, H9, 24 h, read-out: Efficacy (activity range between predicted activities at zero and infinite doses, Hill equation)): 12.1%
- Emax (Homo sapiens, H9, 24 h, read-out: Max (maximum activity value from all tested concentrations)): 22.5%

SMILES: CC1=NN(c2ccccc2)C(=O)C1 [Edaravone]
- Emax [3]: 21%
- AC50 [4]: 0.521 µM
- Emax [5]: 11%

SMILES: O=S(=O)(c1cccc2cnccc12)N1CCCNCC1 [Fasudil hydrochloride]
- Emax [3]: 107%
- AC50 [4]: 33.2 µM
- Emax [5]: 127%

SMILES: CNCCC(Oc1ccc(C(F)(F)F)cc1)c1ccccc1 (stereo not drawn) [Fluoxetine hydrochloride]
- Emax [3]: 70.4%
- Emax [5]: 0%

SMILES: CC1(C)[C@@H](O[C@H]2O[C@H](C(=O)O)[C@@H](O)[C@H](O)[C@H]2O[C@@H]2O[C@H](C(=O)O)[C@@H](O)[C@H](O)[C@H]2O)CC[C@]2(C)[C@H]3C(=O)C=C4[C@@H]5C[C@@](C)(C(=O)O)CC[C@]5(C)CC[C@@]4(C)[C@]3(C)CC[C@@H]12.N [GLYCYRRHIZIC ACID. AMMONIUM SALT]
- Max (maximum activity value from all tested concentrations) [1]: 23.95%
- AC50 [6]: 14.7 µM
- Efficacy (activity range between predicted activities at zero and infinite doses, Hill equation) [2]: 26

SMILES: CC1=C(C(=O)Nc2cc3cn[nH]c3cc2F)C(c2ccc(Cl)cc2F)N=C(c2ccnc(Cl)c2)N1 (stereo not drawn) [GSK-25]
- Max (maximum activity value from all tested concentrations) [1]: 121.1% and 113.3%
- Efficacy (activity range between predicted activities at zero and infinite doses, Hill equation) [2]: 118 and 113

SMILES: CCn1c(-c2nonc2N)nc2cnc(Oc3cccc(NC(=O)c4ccc(OCCN5CCOCC5)cc4)c3)cc21 [GSK-269962A]
- Max (maximum activity value from all tested concentrations) [1]: 133.3%
- AC50 [6]: 11.8 µM
- Efficacy (activity range between predicted activities at zero and infinite doses, Hill equation) [2]: 106

SMILES: CC1=C(C(=O)Nc2cc3cn[nH]c3cc2F)C(c2ccc(C(F)(F)F)cc2)CC(=O)N1 (stereo not drawn) [GSK-429286A]
- Max (maximum activity value from all tested concentrations) [1]: 129.3%
- AC50 [6]: 3.32 µM
- Efficacy (activity range between predicted activities at zero and infinite doses, Hill equation) [2]: 126

SMILES: Cc1cncc2cccc(S(=O)(=O)N3CCCN(C(=O)CN)C[C@@H]3C)c12 [Glycyl-H-1152]
- Emax [3]: 121%

SMILES: Cn1c2ccccc2c2c3c(c4c5ccccc5n(CCC#N)c4c21)CNC3=O [Go-6976]
- Emax [3]: 49.1%
- AC50 [4]: 4.69 µM
- Emax [5]: 37.3%

SMILES: Cl.Cl.O=S(=O)(NCCNC/C=C/c1ccc(Br)cc1)c1cccc2cnccc12 [H-89]
- Max (maximum activity value from all tested concentrations) [1]: 25.95%
- AC50 [6]: 1.87 µM
- Efficacy (activity range between predicted activities at zero and infinite doses, Hill equation) [2]: 16.9

SMILES: O=S(=O)(c1cccc2cnccc12)N1CCNCC1 [HA-100]
- Max (maximum activity value from all tested concentrations) [1]: 88.17%
- AC50 [6]: 7.31 µM
- Efficacy (activity range between predicted activities at zero and infinite doses, Hill equation) [2]: 88.9

SMILES: Cl.NC(N)=NCCNS(=O)(=O)c1cccc2cnccc12 [HA-1004 hydrochloride]
- Max (maximum activity value from all tested concentrations) [1]: 50.05%
- AC50 [6]: 5.17 µM
- Efficacy (activity range between predicted activities at zero and infinite doses, Hill equation) [2]: 50
